Laboratory results published in US5362630A, “Isolation of pseudomonas salicylate hydroxlase and its use for the identification and quantitation of salicylate in body fluids” (Duke University, priority 1992, dated 1994).

How the values were obtained:
[1] = test system: salicylate hydroxylase; assay: Salicylate hydroxylase enzyme assay (NAD(P)H oxidation at 340 nm); type: biochemical, Pseudomonas
Description: Generally the reaction is carried out in a buffered solution (unless pH change or CO2 evolution is being measured). The buffer should offer near physiological conditions of pH and ionic strength for the enzyme. A potassium phosphate buffer, pH 7.6, at a concentration of 20 mM is preferred, although any pH from 6.5 to 8.9 and concentration from 5 to 100 mM is adequate. The sample may be added in any amount sufficient to trigger enzyme activity (if the salicylate is present in the sample) and the choice of sample size is discussed fully at a later time. From 1 to 40 μl per ml of total volume is convenient. Since the enzyme is generally available as a solution, it is conveniently added as such. About 10 μl of an enzyme solution containing 0.01 to 1 IU/ml is sufficient for most conditions, although the amount may be increased to speed up the reaction or decreased to slow the reaction down as needed. One IU (International Unit) is the amount of enzyme required to catalyze the disappearance of one μmole of NADH/min. NADH (or NADPH) may be present in a concentration of from about 10 to about 290 μM. Since the concentration of O2 in aqueous media is between 0.20 mM and 0.30 mM, it is not necessary to keep NAD(P)H concentration higher than […].
Enzyme Assay. The assay procedure for the enzyme and the definition of the enzyme were the same as that described in White-Stevens and Kamin (1970) except that EDTA and FAD were excluded in the assay mixture of the present work. The extinction coefficient of 6.22×10^3 M^-1 cm^-1 was used to convert the A340 change to micromoles of NADH oxidized.

[2] = cited from earlier work
[3] = test system: salicylate hydroxylase; conditions: cited from earlier work; for product inhibition of the enzyme: found by White-Stevens and Kamin

With `O=C(O)CN(CCN(CC(=O)O)CC(=O)O)CC(=O)O` [EDTA, ethylenediaminetetracetic acid] as the compound, how does the “inhibition of / interference with the enzyme activity” value (“inhibition of / interference” for short) [1] read?
The value was “do not inhibit”.

With `CC(=O)Nc1ccc(O)cc1` [acetaminophen] as the compound, how does the “inhibition of / interference” value [1] read?
Its value is “do not interfere”.

For `CC(=O)Oc1ccccc1C(=O)O` [aspirin, acetylsalicylic acid], which “overdose serum/plasma level (serious poison, coma and death)” value [2] is on record?
The value was “over 45 mg/dl”.

For `O=C(O)c1ccccc1` [benzoate], which Km ([3]; substrate or pseudosubstrate of salicylate hydroxylase, read-out: Km of the enzyme) is on record?
Its Km is 2000 µM.

With `Oc1ccccc1O` [catechol] as the compound, how does the “product inhibition of the enzyme” value [3] read?
Its value is “no product inhibition”.

With `O=C(O)CC(O)(CC(=O)O)C(=O)O` [citrate] as the compound, how does the “inhibition of / interference” value [1] read?
The value was “do not inhibit”.

With `O=C(O)C(=O)O` [oxalate] as the compound, how does the “inhibition of / interference” value [1] read?
The value was “do not inhibit”.

Which “therapeutic range, serum or plasma level” value [2] does the source give for `O=C(O)c1ccccc1O` [salicylate] here?
Its value is 5 to 40 mg/dL.

For NAD(P)^+, which “product inhibition of the enzyme” value [3] is on record?
Its value is “no product inhibition”.

Which “inhibition of / interference” value [1] does the source give for heparin here?
Its value is “no effect”.
